ChEMBL document CHEMBL3286376, “Design, synthesis and biological evaluation of hydroxy- or methoxy-substituted 5-benzylidene(thio) barbiturates as novel tyrosinase inhibitors” (Bioorg Med Chem, 2014)
pIC50: −log10 of the molar value. Active and inactive are the calls of the source. The calls are words filed in the database; no cut-off is given here.

target: T1, Tyrosinase (Agaricus bisporus) (UniProt O42713); experiment: Irreversible inhibition of mushroom tyrosinase diphenolase activity assessed as oxidation of L-DOPA at 1 to 2 uM
T1 sequence (whole entry): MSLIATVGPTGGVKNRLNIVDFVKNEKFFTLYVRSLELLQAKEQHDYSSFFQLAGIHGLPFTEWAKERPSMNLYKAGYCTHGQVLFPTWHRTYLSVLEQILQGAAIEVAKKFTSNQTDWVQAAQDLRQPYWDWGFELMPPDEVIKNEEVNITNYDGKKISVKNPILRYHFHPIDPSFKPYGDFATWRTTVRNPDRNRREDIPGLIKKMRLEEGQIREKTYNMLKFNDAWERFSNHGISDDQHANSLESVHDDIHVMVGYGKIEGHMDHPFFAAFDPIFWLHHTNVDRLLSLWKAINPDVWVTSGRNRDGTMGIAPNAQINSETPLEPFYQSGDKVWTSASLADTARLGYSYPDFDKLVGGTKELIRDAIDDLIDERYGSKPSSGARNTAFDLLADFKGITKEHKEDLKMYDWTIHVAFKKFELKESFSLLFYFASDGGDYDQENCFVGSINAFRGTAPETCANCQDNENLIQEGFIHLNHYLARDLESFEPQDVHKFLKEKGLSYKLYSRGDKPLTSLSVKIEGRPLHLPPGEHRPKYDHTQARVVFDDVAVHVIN

| Structure (SMILES) | inhibition |
| --- | --- |
| O=C1NC(=O)C(=Cc2ccc(O)c(O)c2)C(=O)N1 | Active |

target: T2, Tyrosinase (Agaricus bisporus, UniProt O42713)
T2 sequence (O42713 whole entry): T1 sequence (whole entry)
Description: Inhibition of mushroom tyrosinase diphenolase activity using L-DOPA as substrate assessed as formation of DOPAchrome preincubated for 10 mins followed by substrate addition measured for 1 min

| Structure (SMILES) | pIC50 |
| --- | --- |
| O=C1NC(=S)NC(=O)C1=Cc1ccc(O)c(O)c1 | 5.21 |
| O=C1NC(=O)C(=Cc2ccc(O)cc2O)C(=O)N1 | 4.77 |
| O=C1NC(=O)C(=Cc2ccc(O)c(O)c2)C(=O)N1 | 5.82 |
| COc1ccc(C=C2C(=O)NC(=S)NC2=O)cc1 | 4.15 |
| COc1cc(C=C2C(=O)NC(=O)NC2=O)ccc1O | 5.26 |
| O=C1NC(=S)NC(=O)C1=Cc1cc(O)c(O)c(O)c1 | 5.15 |
| O=C1NC(=S)NC(=O)C1=Cc1ccc(O)c(O)c1O | 4.02 |
| COc1cc(C=C2C(=O)NC(=S)NC2=O)ccc1O | 5.11 |
| O=C1NC(=O)C(=Cc2cc(O)c(O)c(O)c2)C(=O)N1 | 5.26 |
| COc1ccc(C=C2C(=O)NC(=O)NC2=O)cc1 | 4.00 |

target: T1, Tyrosinase (Agaricus bisporus); experiment: Irreversible inhibition of mushroom tyrosinase diphenolase activity assessed as oxidation of L-DOPA at 5 to 10 uM

| Structure (SMILES) | inhibition |
| --- | --- |
| O=C1NC(=S)NC(=O)C1=Cc1ccc(O)c(O)c1 | Active |

target: T1, Tyrosinase (Agaricus bisporus); experiment: Inhibition of mushroom tyrosinase diphenolase activity using L-DOPA as substrate assessed as formation of DOPAchrome at 100 uM preincubated for 10 mins followed by substrate addition measured for 1 min relative to control

| Structure (SMILES) | inhibition [%] |
| --- | --- |
| O=C1NC(=S)NC(=O)C1=Cc1cccc(O)c1 | < 20 |
| O=C1CC(=O)NC(=S)N1 | < 20 |
| O=C1NC(=O)C(=Cc2cccc(O)c2)C(=O)N1 | < 20 |
| O=C1NC(=O)C(=Cc2ccccc2O)C(=O)N1 | < 20 |
| COc1ccc(C=C2C(=O)NC(=S)NC2=O)cc1O | < 20 |
| O=C1NC(=O)C(=Cc2ccc(O)c(O)c2O)C(=O)N1 | < 20 |
| O=Cc1ccc(O)c(O)c1 | < 20 |
| O=C1NC(=S)NC(=O)C1=Cc1ccc(O)cc1O | < 20 |
| COc1cc(C=C2C(=O)NC(=O)NC2=O)cc(OC)c1OC | < 20 |
| O=C1NC(=S)NC(=O)C1=Cc1c(O)cc(O)cc1O | < 20 |
| COc1ccc(C=C2C(=O)NC(=O)NC2=O)cc1O | < 20 |
| O=C1NC(=O)C(=Cc2c(O)cc(O)cc2O)C(=O)N1 | < 20 |
| O=C1CC(=O)NC(=O)N1 | < 20 |
| O=C1NC(=S)NC(=O)C1=Cc1ccccc1O | < 20 |
| COc1cc(C=C2C(=O)NC(=S)NC2=O)cc(OC)c1OC | < 20 |
